SMILES strings stand for the structures.

The text below walks through data of patent publication US12281079B2, “Quinoline derivatives, processes for their preparation and uses thereof for the treatment of cancer” (Lead Discovery Center GmbH, priority 2019, dated 2025).

This experiment deals with mitochondrial RNA polymerase (POLRMT) (Mus musculus, UniProt Q8BKF1). Kind of experiment: Homogeneous TR-FRET assay for mitochondrial transcription activity. Type of experiment: biochemical. The settings on record: homogeneous TR-FRET assay according to Example 4. The text has this: The TR-FRET assay was basically conducted as described in WO2016/193231A1, especially as described in example 1 (hereby incorporated by reference). With respect to the back ground of the mitochondrial transcription it is referred to Falkenberg et al. (2002) and Posse et al. (Posse et al., 2015). The method monitors the activity of mitochondrial RNA-polymerase via detection of the formation of its product, a 407 bp long RNA sequence. Detection of the product is facilitated by hybridization of two DNA-oligonucleotide probes to specific and adjacent sequences within the RNA product sequence. Upon annealing of the probes, two fluorophores that are coupled directly to an acceptor nucleotide probe (ATT0647, 5′) or introduced via a coupled streptavidin interacting with a biotinylated donor nucleotide probe on the other side (Europium cryptate, 3′) are brought into sufficient proximity to serve as a fluorescence-donor-acceptor pair as generally described in Walters and Namchuk (2003). Thus, a FRET signal at 665 nm is generated upon excitation at 340 nm.
Chain of mitochondrial RNA polymerase (POLRMT) (Q8BKF1 42-1207): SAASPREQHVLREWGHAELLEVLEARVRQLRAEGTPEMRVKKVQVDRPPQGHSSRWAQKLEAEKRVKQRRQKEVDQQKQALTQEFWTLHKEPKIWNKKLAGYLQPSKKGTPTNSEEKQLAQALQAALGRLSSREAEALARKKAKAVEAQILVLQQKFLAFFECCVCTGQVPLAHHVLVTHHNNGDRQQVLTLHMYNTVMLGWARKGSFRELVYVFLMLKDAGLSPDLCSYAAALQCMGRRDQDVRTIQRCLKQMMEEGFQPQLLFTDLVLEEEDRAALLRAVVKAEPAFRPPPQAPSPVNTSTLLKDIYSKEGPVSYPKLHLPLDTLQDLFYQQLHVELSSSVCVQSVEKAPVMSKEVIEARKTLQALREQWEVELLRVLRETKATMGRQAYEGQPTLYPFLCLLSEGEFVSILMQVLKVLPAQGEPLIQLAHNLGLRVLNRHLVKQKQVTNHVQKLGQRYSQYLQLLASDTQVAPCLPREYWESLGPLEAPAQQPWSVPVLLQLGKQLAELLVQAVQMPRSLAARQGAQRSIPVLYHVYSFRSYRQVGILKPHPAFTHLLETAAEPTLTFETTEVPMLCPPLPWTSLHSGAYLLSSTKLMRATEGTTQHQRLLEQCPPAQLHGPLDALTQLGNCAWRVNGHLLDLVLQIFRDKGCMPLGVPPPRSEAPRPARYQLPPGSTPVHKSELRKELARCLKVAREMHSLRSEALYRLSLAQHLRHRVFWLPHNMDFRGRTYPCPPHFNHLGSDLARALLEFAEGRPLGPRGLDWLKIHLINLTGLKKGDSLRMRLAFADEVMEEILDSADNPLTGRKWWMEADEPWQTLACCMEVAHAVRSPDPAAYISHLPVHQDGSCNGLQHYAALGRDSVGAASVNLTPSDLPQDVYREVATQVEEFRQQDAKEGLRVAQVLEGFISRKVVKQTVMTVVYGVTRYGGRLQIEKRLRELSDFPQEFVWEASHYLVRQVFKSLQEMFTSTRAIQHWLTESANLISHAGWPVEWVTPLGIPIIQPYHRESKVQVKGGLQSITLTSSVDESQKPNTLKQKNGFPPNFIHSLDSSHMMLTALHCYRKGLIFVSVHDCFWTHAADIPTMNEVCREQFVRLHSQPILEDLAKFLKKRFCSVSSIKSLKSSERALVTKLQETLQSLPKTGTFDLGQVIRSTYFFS
Briefly, the protocol described here was applied for screening and activity determination in a low-volume 384-well microtiter plate with non-binding surface. For high-throughput application in the 1536-well microtiter plate format, volumes of the reagent mixes were adjusted, maintaining the volumetric ratio. Proteins POLRMT (NM_172551.3), TFAM (NM_009360.4) and TFB2M (NM_008249.4) were diluted from their stocks to working concentrations of 150 nM, 1.8 μM and 330 nM respectively, in a dilution buffer containing 100 mM Tris-HCl pH 8.0, 200 mM NaCl, 10% (v/v) glycerole, 2 mM glutathione (GSH), 0.5 mM EDTA and 0.1 mg/mL BSA. Protein dilutions and template DNA, comprising a pUC18 plasmid encoding the mitochondrial light strand promoter, restriction linearized proximal to the promoter 3′-end (pUC-LSP), were mixed at the twofold final assay-concentration in a reaction buffer, containing 10 mM Tris-HCl pH 7.5, 10 mM MgCl2, 40 mM NaCl, 2 mM GSH, 0.01% (w/v) Tween-20 and 0.1 mg/mL BSA.
5 μL of this mix were dispensed, depending on the chosen microtiter plate format, using multi-channel pipettes or a Multidrop® dispenser (Thermo Fisher Scientific, Waltham Mass.) into the wells of a microtiter plate and incubated at room temperature (rt) for 10 min. Chemical compounds under scrutiny in the assay were applied using contact-free acoustic droplet-dispensing (Echo520® Labcyte Inc., Sunnyvale Calif.) from 10 mM compound stocks in 100% DMSO, to a final concentration of 10 μM or in serial dilution series of the required concentration range. Equal amounts of DMSO without any compound were added to positive control samples, followed by an incubation step at rt for 10 min.
The enzymatic reaction was started by the addition of 5 μL of a mix of dNTPs in reaction buffer to a final concentration of 500 μM each. No nucleotide mix was added to negative control samples. The content of the wells was mixed using a VarioTeleshaker™ (Thermo Fisher Scientific, Waltham Mass.) at 1500 rpm for 45 sec after which the microtiter plate was centrifuged at 500×g for 1 min. The samples were incubated for 2 h at rt with humidity control to avoid evaporation. The detection reagents were prepared in a buffer that was composed, such that the enzymatic reaction was terminated due to chelating of Mg-ions and increased ionic strength, containing 50 mM Tris-HCl pH 7.5, 700 mM NaCl, 20 mM EDTA, and 0.01% (w/v) Tween-20. Importantly Eu-cryptate-coupled streptavidin had to be preincubated with a 100-fold molar excess of a random sequence oligonucleotide for 10 min at rt in the dark to block unspecific binding of single stranded RNA to the protein. Subsequently, the blocked streptavidin(-Eu) was mixed with the DNA-probes on ice and kept away from light until use. […]
As to `CCOC(=O)C[C@H]1CCCN(C(=O)[C@@H](C)Oc2ccc3c(-c4ccc(F)cc4Cl)cc(Cl)nc3c2)C1` [Compound 93, ethyl 2-[(3R)-1-[(2R)-2-[[2-chloro-4-(2-chloro-4-fluoro-phenyl)-7-quinolyl]oxy]propanoyl]-3-piperidyl]acetate], the IC50 was in the range of 1000 to 10000 nM. The value for `CCOC(=O)c1ccc(NC(=O)[C@@H](C)Oc2ccc3c(-c4ccc(F)cc4Cl)ccnc3c2)cc1` [Compound 51, ethyl 4-[[(2R)-2-[[4-(2-chloro-4-fluoro-phenyl)-7-quinolyl]oxy]propanoyl]amino]benzoate] was 100 to 1000 nM; that for `CC(C)OC(=O)COc1ccc2c(-c3ccccc3Cl)ccnc2c1` [Compound 82, isopropyl 2-[[4-(2-chlorophenyl)-7-quinolyl]oxy]acetate] was 1000 to 10000 nM. On to `Cc1cccc(C)c1-c1ccnc2cc(O[C@H](C)C(=O)N3CCCC(CS(N)(=O)=O)C3)ccc12` (mixture of isomers) [Compound 190, [1-[rac-(2R)-2-[[4-(2,6-dimethylphenyl)-7-quinolyl]oxy]propanoyl]-3-piperidyl]methanesulfonamide], for which the IC50 is less than 20 nM.

Regarding `Cc1ccccc1-c1cc(Cl)nc2cc(O[C@H](C)C(=O)O)ccc12` [Compound 43, (2R)-2-[[2-chloro-4-(o-tolyl)-7-quinolyl]oxy]propanoic acid], the IC50 was in the range of 100 to 1000 nM. `COC(=O)C1CC(NC(=O)[C@@H](C)Oc2ccc3c(-c4ccccc4Cl)cc(Cl)nc3c2)C1` (stereo partly drawn) [Compound 97, methyl 3-[[(2R)-2-[[2-chloro-4-(2-chlorophenyl)-7-quinolyl]oxy]propanoyl]amino]cyclobutanecarboxylate]: the half-maximal inhibitory concentration (IC50) lay within 1000 to 10000 nM. `CCOC(=O)C[C@H]1CCCN(C(=O)[C@@H](C)Oc2ccc3c(-c4ccccc4Cl)cc(Cl)nc3c2)C1` [Compound 92, ethyl 2-[(3R)-1-[(2R)-2-[[2-chloro-4-(2-chlorophenyl)-7-quinolyl]oxy]propanoyl]-3-piperidyl]acetate]: the half-maximal inhibitory concentration (IC50) fell in the range of 1000 to 10000 nM.

With `C[C@@H](Oc1ccc2c(-c3ccc(F)cc3Cl)ccnc2c1)C(=O)N1C[C@H]2C[C@@H]1CN2` [Compound 217, (2R)-2-[[4-(2-chloro-4-fluoro-phenyl)-7-quinolyl]oxy]-1-[(1R)-2,5-diazabicyclo[2.2.1]heptan-2-yl]propan-1-one], the 50% inhibitory concentration (IC50) lay in the range of 1000 to 10000 nM. With `Cc1cccc(Cl)c1-c1ccnc2cc(O[C@H](C)C(=O)N3CCC[C@H](CC(=O)O)C3)ccc12` [Compound 141, 2-[(3R)-1-[(2R)-2-[[4-(2-chloro-6-methyl-phenyl)-7-quinolyl]oxy]propanoyl]-3-piperidyl]acetic acid] the figure was less than 20 nM. The molecule `CCOC(=O)C[C@H]1CCCN(C(=O)[C@@H](C)Oc2ccc3c(-c4c(C)cccc4C)ccnc3c2)C1` [Compound 6, ethyl 2-[(3R)-1-[(2R)-2-[[4-(2,6-dimethylphenyl)-7-quinolyl]oxy]propanoyl]-3-piperidyl]acetate] returned an IC50 of less than 20 nM.

With `COC(=O)C[C@@H]1CCN(C(=O)[C@@H](C)Oc2ccc3c(-c4ccc(F)cc4Cl)ccnc3c2)C1` [Compound 67, methyl 2-[(3S)-1-[(2R)-2-[[4-(2-chloro-4-fluoro-phenyl)-7-quinolyl]oxy]propanoyl]pyrrolidin-3-yl]acetate], the concentration for half-maximal inhibition (IC50) fell in the range of 100 to 1000 nM.

On to `C[C@@H](Oc1ccc2c(-c3ccccc3N(C)C)ccnc2c1)C(=O)N1CCC[C@H](CC(=O)O)C1` [Compound 145, 2-[(3R)-1-[(2R)-2-[[4-[2-(dimethylamino)phenyl]-7-quinolyl]oxy]propanoyl]-3-piperidyl]acetic acid], for which the IC50 lay in the range of 100 to 1000 nM. Regarding `C[C@H](Oc1ccc2c(-c3ccc(F)cc3Cl)ccnc2n1)C(=O)N1CCC[C@H](C(=O)O)C1` [Compound 127, (3S)-1-[(2S)-2-[[5-(2-chloro-4-fluoro-phenyl)-1,8-naphthyridin-2-yl]oxy]propanoyl]piperidine-3-carboxylic acid], the IC50 lay in the range of 1000 to 10000 nM. With `C[C@@H](Oc1ccc2c(-c3ccc(F)cc3Cl)ccnc2c1)C(=O)Nc1ccc(CCO)cc1` [Compound 125, (2R)-2-[[4-(2-chloro-4-fluoro-phenyl)-7-quinolyl]oxy]-N-[4-(2-hydroxyethyl)phenyl]propanamide] the figure was 1000 to 10000 nM; with `CCC(Oc1ccc2c(-c3ccccc3Cl)ccnc2c1)C(=O)N1CCC[C@H](CC(=O)O)C1` (mixture of isomers) [Compound 140, 2-[rac-(3R)-1-[2-[[4-(2-chlorophenyl)-7-quinolyl]oxy]butanoyl]-3-piperidyl]acetic acid], 20 to 100 nM.

The molecule `C[C@@H](Oc1ccc2c(-c3ccc(F)cc3Cl)cc(Cl)nc2c1)C(=O)N1CCCCC1` [Compound 107, (2R)-2-[[2-chloro-4-(2-chloro-4-fluoro-phenyl)-7-quinolyl]oxy]-1-(1-piperidyl)propan-1-one] yielded an IC50 of 1000 to 10000 nM. With `CCOC(=O)[C@H]1CCCN(C(=O)COc2ccc3c(-c4ccccc4Cl)ccnc3c2)C1` [Compound 87, ethyl (3S)-1-[2-[[4-(2-chlorophenyl)-7-quinolyl]oxy]acetyl]piperidine-3-carboxylate], the IC50 was in the range of 1000 to 10000 nM. As for `CC(Oc1ccc2c(-c3ccccc3Cl)ccnc2c1)C(=O)N1CCC[C@H](C(=O)O)C1` (mixture of isomers) [Compound 23, rac-(3S)-1-[2-[[4-(2-chlorophenyl)-7-quinolyl]oxy]propanoyl]piperidine-3-carboxylic acid], the IC50 lay in the range of 20 to 100 nM. In turn, `CNC(=O)C[C@H]1CCCN(C(=O)[C@@H](C)Oc2ccc3c(-c4ccc(F)cc4Cl)cc(Cl)nc3c2)C1` [Compound 98, 2-((R)-1-((R)-2-((2-chlor-4-(2-chloro-4-fluorophenyl)quinolin-7-yl)oxy)propanoyl)piperidin-3-yl)-N-methylacetamide] had an IC50 of 1000 to 10000 nM. The molecule `COC(=O)C[C@H]1CCN(C(=O)[C@@H](C)Oc2ccc3c(-c4ccc(F)cc4Cl)ccnc3c2)C1` [Compound 37, methyl 2-[(3R)-1-[(2R)-2-[[4-(2-chloro-4-fluoro-phenyl)-7-quinolyl]oxy]propanoyl]pyrrolidin-3-yl]acetate] came in with an IC50 of 100 to 1000 nM.

Take `C[C@@H](Oc1ccc2c(-c3ccccc3Cl)cc(Cl)nc2c1)C(=O)N1CCN(C(=O)CN)CC1` [Compound 85, (2R)-1-[4-(2-aminoacetyl)piperazin-1-yl]-2-[[2-chloro-4-(2-chlorophenyl)-7-quinolyl]oxy]propan-1-one]: the IC50 fell in the range of 1000 to 10000 nM.

For `C[C@@H](Oc1ccc2c(-c3ccc(F)cc3Cl)ccnc2c1)C(=O)O` [Compound 44, (R)-2-((4-(2-chloro-4-fluorophenyl)quinolin-7 yl)oxy)propanoic acid], the IC50 is 100 to 1000 nM. As for `CNC(=O)[C@H]1CCCN(C(=O)[C@@H](C)Oc2ccc3c(-c4ccc(F)cc4Cl)cc(Cl)nc3c2)C1` [Compound 105, (3S)-N-methyl-1-[(2R)-2-[[2-chloro-4-(2-chloro-4-fluoro-phenyl)-7-quinolyl]oxy]propanoyl]piperidine-3-carboxamide], the IC50 fell in the range of 1000 to 10000 nM. In the case of `C[C@@H](Oc1ccc2c(-c3ccccc3Br)ccnc2c1)C(=O)N1CCC[C@H](CC(=O)O)C1` [Compound 142, 2-[(3R)-1-[(2R)-2-[[4-(2-bromophenyl)-7-quinolyl]oxy]propanoyl]-3-piperidyl]acetic acid], the IC50 was less than 20 nM. As for `COC(=O)[C@@H]1CCCN(C(=O)[C@@H](C)Oc2ccc3c(-c4ccc(F)cc4Cl)ccnc3c2)C1` [Compound 71, methyl (3R)-1-[(2R)-2-[[4-(2-chloro-4-fluoro-phenyl)-7-quinolyl]oxy]propanoyl]piperidine-3-carboxylate], the IC50 is 100 to 1000 nM.
